Reference: patent US20120029187A1, “HALOALKYLSULFONANILIDE DERIVATIVE” (Nissan Chemical Industries, Ltd., priority 2009, published 2012)

Columns and labels:
Assay type in all cases: in vivo
ducksalad [1] = test: Test Example 2: herbicidal effects during the vegetation period under submerged conditions; settings: treatment during the vegetation period under submerged conditions; dose 2.52 g/a
Procedure, shortened: (§1)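 Barnyardgrass, bulrush and ducksalad were co-sown in alluvial soil flooded to 4 cm and grown in a greenhouse at 25 to 30° C. At the 1- or 2-leaf stage, water-diluted emulsifiable concentrates went onto the water surface at set doses (g/a). Herbicidal effect was scored three weeks later on a graded scale.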

barnyardgrass [2] = test: as above; settings: treatment during the vegetation period under submerged conditions; dose 2.52 g/a
Procedure, shortened: as §1

bulrush [3] = test: as above; settings: treatment during the vegetation period under submerged conditions; dose 2.52 g/a
Procedure, shortened: as §1

velvetleaf [4] = test: Test Example 3: herbicidal effects in soil treatment
Procedure, shortened: (§2)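 Seeds were sown in sterilized diluvial soil and covered with about 1.5 cm of soil. Compounds, formulated as emulsifiable concentrates and diluted with water, were sprayed evenly over the soil surface at set doses in g/a. Herbicidal effect was scored on a rating scale three weeks later.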

Italian ryegrass [5] = test: as above
Procedure, shortened: as §2

large crabgrass [6] = test: as above
Procedure, shortened: as §2

wild oat [7] = test: as above
Procedure, shortened: as §2

water foxtail [8] = test: as above
Procedure, shortened: as §2

giant foxtail [9] = test: as above
Procedure, shortened: as §2

redroot pigweed [10] = test: as above
Procedure, shortened: as §2

common chickweed [11] = test: as above
Procedure, shortened: as §2

barnyardgrass [12] = test: as above
Procedure, shortened: as §2

posumbu knotweed [13] = test: as above
Procedure, shortened: as §2

common ragweed [14] = test: as above
Procedure, shortened: as §2

common lambsquater [15] = test: as above; settings: dose 6.3 g/a
Procedure, shortened: as §2

beadstraw = test: Test Example 4: herbicidal effect in foliage treatment; settings: three weeks after application
Procedure, shortened: (§3)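 Seeds were spot-sown in boxes of sterilized diluvial soil and raised in a greenhouse (25 to 30° C) for 14 days before a single foliar application. Compounds were applied as emulsifiable concentrates diluted with water, at predetermined doses in g/a. Injury was graded three weeks post-spray.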

velvetleaf [16] = test: as above; settings: three weeks after application
Procedure, shortened: as §3

Italian ryegrass [17] = test: as above; settings: three weeks after application
Procedure, shortened: as §3

large crabgrass [18] = test: as above; settings: three weeks after application
Procedure, shortened: as §3

wild oat [19] = test: as above; settings: three weeks after application
Procedure, shortened: as §3

water foxtail [20] = test: as above; settings: three weeks after application
Procedure, shortened: as §3

giant foxtail [21] = test: as above; settings: three weeks after application
Procedure, shortened: as §3

redroot pigweed [22] = test: as above; settings: three weeks after application
Procedure, shortened: as §3

common chickweed [23] = test: as above; settings: three weeks after application
Procedure, shortened: as §3

barnyardgrass [24] = test: as above; settings: three weeks after application
Procedure, shortened: as §3

posumbu knotweed [25] = test: as above; settings: three weeks after application
Procedure, shortened: as §3

common ragweed [26] = test: as above; settings: three weeks after application
Procedure, shortened: as §3

common lambsquater [27] = test: as above; settings: three weeks after application
Procedure, shortened: as §3

ducksalad [28] = test: Test Example 1: herbicidal effects in preemergence treatment under submerged conditions; settings: dose 2.52 g/a
Procedure, shortened: (§4)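 Alluvial soil flooded to 4 cm depth; barnyardgrass, bulrush and ducksalad sown and 2.5-leaf rice seedlings transplanted. Same day, water-diluted emulsifiable concentrates applied to the water surface at set doses (g/a). Kept at 25–30 °C in greenhouse; effects scored 0–5 by mortality after three weeks.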

barnyardgrass [29] = test: as above; settings: dose 2.52 g/a
Procedure, shortened: as §4

bulrush [30] = test: as above; settings: dose 2.52 g/a
Procedure, shortened: as §4

transplanted rice = test: Test Example 1: preemergence treatment under submerged conditions, effect on crop; settings: dose 2.52 g/a
Procedure, shortened: as §4

## CC(C)COC(=O)N(c1ccccc1CN1CCOCC1=O)S(=O)(=O)C(F)(F)F [Compound I-3]
Ducksalad [1]
  C: ducksalad, herbicidal effect (evaluation scale 0-5): 5 (mortality of 90% or above (nearly complete death))
Barnyardgrass [2]
  A: barnyardgrass, herbicidal effect (evaluation scale 0-5): 5 (mortality of 90% or above (nearly complete death))
Bulrush [3]
  B: bulrush, herbicidal effect (evaluation scale 0-5): 5 (mortality of 90% or above (nearly complete death))
Velvetleaf [4]; dose 6.3 g/a
  I: velvetleaf, herbicidal effect (evaluation scale 0-5): 5 (mortality of 90% or above (nearly complete death))
Italian ryegrass [5]; dose 6.3 g/a
  H: Italian ryegrass, herbicidal effect (evaluation scale 0-5): 5 (mortality of 90% or above (nearly complete death))
Large crabgrass [6]; dose 6.3 g/a
  D: large crabgrass, herbicidal effect (evaluation scale 0-5): 5 (mortality of 90% or above (nearly complete death))
Wild oat [7]; dose 6.3 g/a
  F: wild oat, herbicidal effect (evaluation scale 0-5): 0 (mortality of less than 5% (almost ineffective))
Water foxtail [8]; dose 6.3 g/a
  G: water foxtail, herbicidal effect (evaluation scale 0-5): 5 (mortality of 90% or above (nearly complete death))
Giant foxtail [9]; dose 6.3 g/a
  E: giant foxtail, herbicidal effect (evaluation scale 0-5): 5 (mortality of 90% or above (nearly complete death))
Redroot pigweed [10]; dose 6.3 g/a
  K: redroot pigweed, herbicidal effect (evaluation scale 0-5): 3 (mortality of at least 40% and less than 70%)
Common chickweed [11]; dose 6.3 g/a
  N: common chickweed, herbicidal effect (evaluation scale 0-5): 5 (mortality of 90% or above (nearly complete death))
Barnyardgrass [12]; dose 6.3 g/a
  A: barnyardgrass, herbicidal effect (evaluation scale 0-5): 5 (mortality of 90% or above (nearly complete death))
Posumbu knotweed [13]; dose 6.3 g/a
  M: posumbu knotweed, herbicidal effect (evaluation scale 0-5): 3 (mortality of at least 40% and less than 70%)
Common ragweed [14]; dose 6.3 g/a
  J: common ragweed, herbicidal effect (evaluation scale 0-5): 4 (mortality of at least 70% and less than 90%)
Common lambsquater [15]
  L: common lambsquater, herbicidal effect (evaluation scale 0-5): 5 (mortality of 90% or above (nearly complete death))
beadstraw; dose 6.3 g/a
  O: beadstraw, herbicidal effect: 4 (mortality of at least 70% and less than 90%)
Velvetleaf [16]; dose 6.3 g/a
  I: velvetleaf, herbicidal effect: 5 (mortality of 90% or above (nearly complete death))
Italian ryegrass [17]; dose 6.3 g/a
  H: Italian ryegrass, herbicidal effect: 3 (mortality of at least 40% and less than 70%)
Large crabgrass [18]; dose 6.3 g/a
  D: large crabgrass, herbicidal effect: 5 (mortality of 90% or above (nearly complete death))
Wild oat [19]; dose 6.3 g/a
  F: wild oat, herbicidal effect: 0 (mortality of less than 5% (almost ineffective))
Water foxtail [20]; dose 6.3 g/a
  G: water foxtail, herbicidal effect: 5 (mortality of 90% or above (nearly complete death))
Giant foxtail [21]; dose 6.3 g/a
  E: giant foxtail, herbicidal effect: 4 (mortality of at least 70% and less than 90%)
Redroot pigweed [22]; dose 6.3 g/a
  K: redroot pigweed, herbicidal effect: 2 (mortality of at least 20% and less than 40%)
Common chickweed [23]; dose 6.3 g/a
  N: common chickweed, herbicidal effect: 4 (mortality of at least 70% and less than 90%)
Barnyardgrass [24]; dose 6.3 g/a
  A: barnyardgrass, herbicidal effect: 5 (mortality of 90% or above (nearly complete death))
Posumbu knotweed [25]; dose 6.3 g/a
  M: posumbu knotweed, herbicidal effect: 0 (mortality of less than 5% (almost ineffective))
Common ragweed [26]; dose 6.3 g/a
  J: common ragweed, herbicidal effect: 4 (mortality of at least 70% and less than 90%)
Common lambsquater [27]; dose 6.3 g/a
  L: common lambsquater, herbicidal effect: 4 (mortality of at least 70% and less than 90%)
Ducksalad [28]
  C: ducksalad, herbicidal effect (evaluation scale 0-5): 5 (mortality of 90% or above (nearly complete death))
Barnyardgrass [29]
  A: barnyardgrass, herbicidal effect (evaluation scale 0-5): 5 (mortality of 90% or above (nearly complete death))
Bulrush [30]
  B: bulrush, herbicidal effect (evaluation scale 0-5): 5 (mortality of 90% or above (nearly complete death))
Transplanted rice
  a: transplanted rice, effect on crop (evaluation scale 0-5): 0 (mortality of less than 5% (almost ineffective))

## CCCOC(=O)N(c1ccccc1CN1COC(C)(C)CC1=O)S(=O)(=O)C(F)(F)F [II-24]
Ducksalad [1]
  C: ducksalad, herbicidal effect (evaluation scale 0-5): 5 (mortality of 90% or above (nearly complete death))
Barnyardgrass [2]
  A: barnyardgrass, herbicidal effect (evaluation scale 0-5): 5 (mortality of 90% or above (nearly complete death))
Bulrush [3]
  B: bulrush, herbicidal effect (evaluation scale 0-5): 5 (mortality of 90% or above (nearly complete death))
Velvetleaf [4]; dose 3.2 g/a
  I: velvetleaf, herbicidal effect (evaluation scale 0-5): 5 (mortality of 90% or above (nearly complete death))
Italian ryegrass [5]; dose 3.2 g/a
  H: Italian ryegrass, herbicidal effect (evaluation scale 0-5): 5 (mortality of 90% or above (nearly complete death))
Large crabgrass [6]; dose 3.2 g/a
  D: large crabgrass, herbicidal effect (evaluation scale 0-5): 4 (mortality of at least 70% and less than 90%)
Wild oat [7]; dose 3.2 g/a
  F: wild oat, herbicidal effect (evaluation scale 0-5): 0 (mortality of less than 5% (almost ineffective))
Water foxtail [8]; dose 3.2 g/a
  G: water foxtail, herbicidal effect (evaluation scale 0-5): 5 (mortality of 90% or above (nearly complete death))
Giant foxtail [9]; dose 3.2 g/a
  E: giant foxtail, herbicidal effect (evaluation scale 0-5): 3 (mortality of at least 40% and less than 70%)
Redroot pigweed [10]; dose 3.2 g/a
  K: redroot pigweed, herbicidal effect (evaluation scale 0-5): 0 (mortality of less than 5% (almost ineffective))
Common chickweed [11]; dose 3.2 g/a
  N: common chickweed, herbicidal effect (evaluation scale 0-5): 3 (mortality of at least 40% and less than 70%)
Barnyardgrass [12]; dose 3.2 g/a
  A: barnyardgrass, herbicidal effect (evaluation scale 0-5): 4 (mortality of at least 70% and less than 90%)
Posumbu knotweed [13]; dose 3.2 g/a
  M: posumbu knotweed, herbicidal effect (evaluation scale 0-5): 4 (mortality of at least 70% and less than 90%)
Common ragweed [14]; dose 3.2 g/a
  J: common ragweed, herbicidal effect (evaluation scale 0-5): 4 (mortality of at least 70% and less than 90%)
beadstraw; dose 3.2 g/a
  O: beadstraw, herbicidal effect: 5 (mortality of 90% or above (nearly complete death))
Velvetleaf [16]; dose 3.2 g/a
  I: velvetleaf, herbicidal effect: 4 (mortality of at least 70% and less than 90%)
Italian ryegrass [17]; dose 3.2 g/a
  H: Italian ryegrass, herbicidal effect: 4 (mortality of at least 70% and less than 90%)
Large crabgrass [18]; dose 3.2 g/a
  D: large crabgrass, herbicidal effect: 4 (mortality of at least 70% and less than 90%)
Wild oat [19]; dose 3.2 g/a
  F: wild oat, herbicidal effect: 0 (mortality of less than 5% (almost ineffective))
Water foxtail [20]; dose 3.2 g/a
  G: water foxtail, herbicidal effect: 5 (mortality of 90% or above (nearly complete death))
Giant foxtail [21]; dose 3.2 g/a
  E: giant foxtail, herbicidal effect: 4 (mortality of at least 70% and less than 90%)
Redroot pigweed [22]; dose 3.2 g/a
  K: redroot pigweed, herbicidal effect: 0 (mortality of less than 5% (almost ineffective))
Common chickweed [23]; dose 3.2 g/a
  N: common chickweed, herbicidal effect: 4 (mortality of at least 70% and less than 90%)
Barnyardgrass [24]; dose 3.2 g/a
  A: barnyardgrass, herbicidal effect: 5 (mortality of 90% or above (nearly complete death))
Posumbu knotweed [25]; dose 3.2 g/a
  M: posumbu knotweed, herbicidal effect: 3 (mortality of at least 40% and less than 70%)
Common ragweed [26]; dose 3.2 g/a
  J: common ragweed, herbicidal effect: 3 (mortality of at least 40% and less than 70%)
Common lambsquater [27]; dose 3.2 g/a
  L: common lambsquater, herbicidal effect: 0 (mortality of less than 5% (almost ineffective))
Ducksalad [28]
  C: ducksalad, herbicidal effect (evaluation scale 0-5): 5 (mortality of 90% or above (nearly complete death))
Barnyardgrass [29]
  A: barnyardgrass, herbicidal effect (evaluation scale 0-5): 5 (mortality of 90% or above (nearly complete death))
Bulrush [30]
  B: bulrush, herbicidal effect (evaluation scale 0-5): 5 (mortality of 90% or above (nearly complete death))
Transplanted rice
  a: transplanted rice, effect on crop (evaluation scale 0-5): 0 (mortality of less than 5% (almost ineffective))
